The values that follow come from patent US11427548B2 (Arvinas Operations, Inc., priority 2015, dated 2022).

Structures are written as SMILES. Where two headings read alike, the source gives them in different places.

This experiment addresses T1, Androgen Receptor (Homo sapiens, UniProt P10275).
T1 construct: endogenous in cells; host or cells: VCaP cells
T1 sequence (P10275 1-920): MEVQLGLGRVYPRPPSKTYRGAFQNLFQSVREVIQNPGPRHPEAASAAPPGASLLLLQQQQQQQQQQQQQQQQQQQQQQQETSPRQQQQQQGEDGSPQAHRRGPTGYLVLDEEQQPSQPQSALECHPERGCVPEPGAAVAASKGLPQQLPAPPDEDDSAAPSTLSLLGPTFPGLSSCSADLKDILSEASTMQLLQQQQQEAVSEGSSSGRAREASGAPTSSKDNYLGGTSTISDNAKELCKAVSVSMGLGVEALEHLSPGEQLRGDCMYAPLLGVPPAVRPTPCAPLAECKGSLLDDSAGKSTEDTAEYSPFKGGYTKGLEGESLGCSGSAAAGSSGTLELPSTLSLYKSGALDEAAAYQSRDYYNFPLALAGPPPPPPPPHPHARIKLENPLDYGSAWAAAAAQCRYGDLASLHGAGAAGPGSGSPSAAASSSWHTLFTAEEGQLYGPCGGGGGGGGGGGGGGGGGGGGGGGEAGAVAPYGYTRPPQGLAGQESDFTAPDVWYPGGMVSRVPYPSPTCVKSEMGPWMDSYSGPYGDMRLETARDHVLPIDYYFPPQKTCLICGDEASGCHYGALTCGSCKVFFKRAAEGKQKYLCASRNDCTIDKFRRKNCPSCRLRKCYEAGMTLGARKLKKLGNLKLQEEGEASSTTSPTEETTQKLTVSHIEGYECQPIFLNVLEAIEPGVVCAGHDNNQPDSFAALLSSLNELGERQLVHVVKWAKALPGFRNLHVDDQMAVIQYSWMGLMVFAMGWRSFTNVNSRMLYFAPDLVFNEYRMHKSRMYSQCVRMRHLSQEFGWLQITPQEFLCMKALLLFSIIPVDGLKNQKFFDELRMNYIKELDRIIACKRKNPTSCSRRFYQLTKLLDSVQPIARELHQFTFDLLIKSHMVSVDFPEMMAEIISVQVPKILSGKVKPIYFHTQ
The experiment is described as follows: Androgen Receptor ELISA assay (PathScan AR ELISA) in VCaP cells: AR degradation, Dmax and DC50. The class given is cell-based. The method in brief: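 After 24 h exposure of VCaP cells (charcoal-stripped serum, 0.1 nM R1881 agonist, 0.1% DMSO) to seven half-log compound concentrations, residual AR in lysates was measured by PathScan ELISA (TMB absorbance, 450 nm). Cells were plated at 30,000/well and grown at least 3 days beforehand.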

[1] abbreviates: read-out: VCaP DC50; concentration that caused 50% Androgen Receptor degradation, VCaP cells (Table 32).

As usually defined, the Dmax is the greatest extent of degradation seen. As usually defined, the DC50 is the concentration giving 50% degradation. On to `CC(C)(C)[C@H](NC(=O)COCCCCOc1ccc(-c2ccc(N3C(=S)N(c4ccc(C#N)c(Cl)c4)C(=O)C3(C)C)cc2)cc1)C(=O)N1C[C@H](O)C[C@H]1C(=O)NCc1ccc(-c2cncs2)cc1` [Example 111, (2S,4R)-1-[(2S)-2-{2-[4-(4-{4-[3-(3-chloro-4-cyanophenyl)-5,5-dimethyl-4-oxo-2-sulfanylideneimidazolidin-1-yl]phenyl}phenoxy)butoxy]acetamido}-3,3-dimethylbutanoyl]-4-hydroxy-N-{[4-(1,3-thiazol-5-yl)phenyl]methyl}pyrrolidine-2-carboxamide], for which the Dmax (VCaP, read-out: VCaP Dmax (%)) was greater than 71%. The half-maximal degradation concentration (DC50) under setting [1] is less than 50 nM.
On to `Cc1ncsc1-c1ccc(CNC(=O)[C@@H]2C[C@@H](O)CN2C(=O)[C@@H](NC(=O)COCCCCOc2ccc(-c3ccc(N4C(=S)N(c5ccc(C#N)c(Cl)c5)C(=O)C4(C)C)cc3)cc2)C(C)(C)C)cc1` [Example 112, (2S,4R)-1-[(2S)-2-{2-[4-(4-{4-[3-(3-chloro-4-cyanophenyl)-5,5-dimethyl-4-oxo-2-sulfanylideneimidazolidin-1-yl]phenyl}phen-oxy)butoxy]acetamido}-3,3-dimethylbutanoyl]-4-hydroxy-N-{[4-(4-methyl-1,3-thiazol-5-yl)phenyl]methyl}pyrrolidine-2-carboxamide], for which the Dmax (VCaP, read-out: VCaP Dmax (%)) is greater than 71%. Besides, under setting [1], the 50% degradation concentration (DC50) is less than 50 nM.
The matching figures for `Cc1ncsc1-c1ccc(CNC(=O)[C@@H]2C[C@@H](O)CN2C(=O)[C@@H](NC(=O)COc2cccc(Oc3ccc(-c4ccc(N5C(=S)N(c6ccc(C#N)c(C(F)(F)F)c6)C(=O)C5(C)C)cc4)cc3)c2)C(C)(C)C)cc1` [Example 114, (2S,4R)-1-[(2S)-2-(2-{3-[4-(4-{3-[4-cyano-3-(trifluoromethyl)phenyl]-5,5-dimethyl-4-oxo-2-sulfanylideneimidazolidin-1-yl}phenyl)phen-oxy]phenoxy}acetamido)-3,3-dimethylbutanoyl]-4-hydroxy-N-{[4-(4-methyl-1,3-thiazol-5-yl)phenyl]methyl}pyrrolidine-2-carboxamide]: 51 to 70% and less than 50 nM.
Regarding `COc1cc(N2C(=O)C(C)(C)N(c3ccc(-c4ccc(OCCCCOCC(=O)N[C@H](C(=O)N5C[C@H](O)C[C@H]5C(=O)NCc5ccc(-c6ocnc6C)cc5)C(C)(C)C)cc4)cc3)C2=S)ccc1C#N` [Example 115, (2S,4R)-1-[(2S)-2-{2-[4-(4-{4-[3-(4-cyano-3-methoxyphenyl)-5,5-dimethyl-4-oxo-2-sulfanylideneimidazolidin-1-yl]phenyl}phenoxy)butoxy]acetamido}-3,3-dimethylbutanoyl]-4-hydroxy-N-{[4-(4-methyl-1,3-oxazol-5-yl)phenyl]methyl}pyrrolidine-2-carboxamide], the greatest degradation seen (Dmax) (VCaP, highest percentage of Androgen Receptor degradation observed, VCaP cells (Table 32); read-out: VCaP Dmax (%)) is greater than 71%. In addition, where the note is “concentration that caused 50% Androgen Receptor degradation, VCaP cells (Table 32); read-out: VCaP DC50”, the DC50 is less than 50 nM.
Consider `Cc1ncoc1-c1ccc(CNC(=O)[C@@H]2C[C@@H](O)CN2C(=O)[C@@H](NC(=O)COCCCCOc2ccc(-c3ccc(N4C(=S)N(c5ccc(C#N)c(C(F)(F)F)c5)C(=O)C4(C)C)c(F)c3)cc2)C(C)(C)C)cc1` [Example 116, (2S,4R)-1-[(2S)-2-(2-{4-[4-(4-{3-[4-cyano-3-(trifluoromethyl)phenyl]-5,5-dimethyl-4-oxo-2-sulfanylideneimidazolidin-1-yl}-3-fluorophenyl)phen-oxy]butoxy}acetamido)-3,3-dimethylbutanoyl]-4-hydroxy-N-{[4-(4-methyl-1,3-oxazol-5-yl)phenyl]methyl}pyrrolidine-2-carboxamide], for which the Dmax (VCaP, read-out: VCaP Dmax (%)) is greater than 71%. Besides, under setting [1], the 50% degradation concentration (DC50) was less than 50 nM.
The matching figures for `CC(C)(C)[C@H](NC(=O)COCCCCOc1ccc(-c2ccc(N3C(=S)N(c4ccc(C#N)c(C(F)(F)F)c4)C(=O)C3(C)C)c(F)c2)cc1)C(=O)N1C[C@H](O)C[C@H]1C(=O)NCc1ccc(-c2cncs2)cc1` [Example 117, (2S,4R)-1-[(2S)-2-(2-{4-[4-(4-{3-[4-cyano-3-(trifluoromethyl)phenyl]-5,5-dimethyl-4-oxo-2-sulfanylideneimidazolidin-1-yl}-3-fluorophenyl)phen-oxy]butoxy}acetamido)-3,3-dimethylbutanoyl]-4-hydroxy-N-{[4-(1,3-thiazol-5-yl)phenyl]methyl}pyrrolidine-2-carboxamide]: greater than 71% and less than 50 nM.
Regarding `Cc1ncsc1-c1ccc(CNC(=O)[C@@H]2C[C@@H](O)CN2C(=O)[C@@H](NC(=O)COCCCCOc2ccc(-c3ccc(N4C(=S)N(c5ccc(C#N)c(C(F)(F)F)c5)C(=O)C4(C)C)c(F)c3)cc2)C(C)(C)C)cc1` [Example 118, (2S,4R)-1-[(2S)-2-(2-{4-[4-(4-{3-[4-cyano-3-(trifluoromethyl)phenyl]-5,5-dimethyl-4-oxo-2-sulfanylideneimidazolidin-1-yl}-3-fluorophenyl)phen-oxy]butoxy}acetamido)-3,3-dimethylbutanoyl]-4-hydroxy-N-{[4-(4-methyl-1,3-thiazol-5-yl)phenyl]methyl}pyrrolidine-2-carboxamide], the Dmax (VCaP, read-out: VCaP Dmax (%)) is greater than 71%. Further, the DC50 under setting [1] was less than 50 nM.
For the molecule `Cc1ncoc1-c1ccc(CNC(=O)[C@@H]2C[C@@H](O)CN2C(=O)[C@@H](NC(=O)COCCCCOc2ccc(-c3ccc(N4C(=S)N(c5ccc(C#N)c(C(F)(F)F)c5)C(=O)C45CCC5)cc3)cc2)C(C)(C)C)cc1` [Example 119, (2S,4R)-1-[(2S)-2-(2-{4-[4-(4-{7-[4-cyano-3-(trifluoromethyl)phenyl]-8-oxo-6-sulfanylidene-5,7-diazaspiro[3.4]octan-5-yl}phenyl)phenoxy]butoxy}acetamido)-3,3-dimethylbutanoyl]-4-hydroxy-N-{[4-(4-methyl-1,3-oxazol-5-yl)phenyl]methyl}pyrrolidine-2-carboxamide], the Dmax (VCaP, read-out: VCaP Dmax (%)) lay in the range of 51 to 70%. Further, the half-maximal degradation concentration (DC50) under setting [1] is less than 50 nM.
For `Cc1ncsc1-c1ccc(CNC(=O)[C@@H]2C[C@@H](O)CN2C(=O)[C@@H](NC(=O)COCCCCOc2ccc(-c3ccc(N4C(=S)N(c5ccc(C#N)c(C(F)(F)F)c5)C(=O)C45CCC5)cc3)cc2)C(C)(C)C)cc1` [Example 120, (2S,4R)-1-[(2S)-2-(2-{4-[4-(4-{7-[4-cyano-3-(trifluoromethyl)phenyl]-8-oxo-6-sulfanylidene-5,7-diazaspiro[3.4]octan-5-yl}phenyl)phenoxy]butoxy}acetamido)-3,3-dimethylbutanoyl]-4-hydroxy-N-{[4-(4-methyl-1,3-thiazol-5-yl)phenyl]methyl}pyrrolidine-2-carboxamide], in that order: greater than 71% and less than 50 nM.
For `CC(C)(C)[C@H](NC(=O)COCCCCOc1ccc(-c2ccc(N3C(=S)N(c4ccc(C#N)c(Cl)c4)C(=O)C3(C)C)cc2)c(F)c1)C(=O)N1C[C@H](O)C[C@H]1C(=O)NCc1ccc(-c2cnco2)cc1` [Example 121, (2S,4R)-1-[(2S)-2-{2-[4-(4-{4-[3-(3-chloro-4-cyanophenyl)-5,5-dimethyl-4-oxo-2-sulfanylideneimidazolidin-1-yl]phenyl}-3-fluorophenoxy)butoxy]acetamido}-3,3-dimethylbutanoyl]-4-hydroxy-N-{[4-(1,3-oxazol-5-yl)phenyl]methyl}pyrrolidine-2-carboxamide], in that order: greater than 71% and less than 50 nM.
The matching figures for `CC(C)(C)[C@H](NC(=O)COCCCCOc1ccc(-c2ccc(N3C(=S)N(c4ccc(C#N)c(C(F)(F)F)c4)C(=O)C3(C)C)cc2)cc1)C(=O)N1C[C@H](O)C[C@H]1C(=O)NCc1ccc(-c2ccn[nH]2)cc1` [Example 122, (2S,4R)-1-[(2S)-2-(2-{4-[4-(4-{3-[4-cyano-3-(trifluoromethyl)phenyl]-5,5-dimethyl-4-oxo-2-sulfanylideneimidazolidin-1-yl}phenyl)phenoxy]butoxy}acetamido)-3,3-dimethylbutanoyl]-4-hydroxy-N-{[4-(1H-pyrazol-5-yl)phenyl]methyl}pyrrolidine-2-carboxamide]: greater than 71% and less than 50 nM.
Turning to `CC(C)(C)[C@H](NC(=O)COCCCCOc1ccc(-c2ccc(N3C(=S)N(c4ccc(C#N)c(Cl)c4F)C(=O)C3(C)C)cc2)cc1)C(=O)N1C[C@H](O)C[C@H]1C(=O)NCc1ccc(-c2cnco2)cc1` [Example 123, (2S,4R)-1-[(2S)-2-{2-[4-(4-{4-[3-(3-chloro-4-cyano-2-fluorophenyl)-5,5-dimethyl-4-oxo-2-sulfanylideneimidazolidin-1-yl]phenyl}phenoxy)butoxy]acetamido}-3,3-dimethylbutanoyl]-4-hydroxy-N-{[4-(1,3-oxazol-5-yl)phenyl]methyl}pyrrolidine-2-carboxamide], the Dmax (VCaP, read-out: VCaP Dmax (%)) is greater than 71%. The DC50 under setting [1] is less than 50 nM.
